The test concerns the target T1, Recombinant human IKKβ (residues 1-737) (Homo sapiens, UniProt O14920).
T1 construct: Recombinant human IKKβ (residues 1-737); GST (C); made in house
T1 sequence (O14920 1-737): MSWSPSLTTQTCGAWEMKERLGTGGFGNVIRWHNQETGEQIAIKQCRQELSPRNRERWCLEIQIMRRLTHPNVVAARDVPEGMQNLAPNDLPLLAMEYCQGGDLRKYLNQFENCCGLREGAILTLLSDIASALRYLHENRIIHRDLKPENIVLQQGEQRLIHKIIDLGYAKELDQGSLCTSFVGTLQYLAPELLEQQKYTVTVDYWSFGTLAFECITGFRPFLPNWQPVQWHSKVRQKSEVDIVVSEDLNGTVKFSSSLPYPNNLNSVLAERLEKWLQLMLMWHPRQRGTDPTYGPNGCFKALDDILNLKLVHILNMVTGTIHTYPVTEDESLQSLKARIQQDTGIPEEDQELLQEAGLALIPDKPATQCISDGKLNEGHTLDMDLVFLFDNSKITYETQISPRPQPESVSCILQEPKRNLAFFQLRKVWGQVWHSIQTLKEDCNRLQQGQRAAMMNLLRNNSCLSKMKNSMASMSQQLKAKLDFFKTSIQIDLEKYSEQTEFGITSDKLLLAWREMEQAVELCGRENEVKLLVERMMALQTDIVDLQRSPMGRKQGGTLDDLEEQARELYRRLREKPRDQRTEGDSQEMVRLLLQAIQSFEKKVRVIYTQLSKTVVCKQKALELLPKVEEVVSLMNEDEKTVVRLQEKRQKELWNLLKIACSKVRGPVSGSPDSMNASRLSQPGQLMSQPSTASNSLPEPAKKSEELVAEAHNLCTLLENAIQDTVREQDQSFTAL
The test can be described thus: IKK2 Assay (TR-FRET). In kind it is biochemical. The note with it: activity against IKK2, IKK2 5 nM, GST-IκBα substrate 25 nM, ATP 1 μM, 30 minutes at room temperature. Here is the method: Recombinant human IKKβ (residues 1-737) was expressed in baculovirus as a C-terminal GST-tagged fusion protein, and its activity was assessed using a time-resolved fluorescence resonance energy transfer (TR-FRET) assay. Briefly, IKK2 (5 nM final) diluted in assay buffer (50 mM HEPES, 10 mM MgCl2, 1 mM CHAPS pH 7.4 with 1 mM DTT and 0.01% w/v BSA) was added to wells containing various concentrations of compound or DMSO vehicle (3% final). The reaction was initiated by the addition of GST-IκBα substrate (25 nM final)/ATP (1 μM final), in a total volume of 30 μL. The reaction was incubated for 30 minutes at room temperature, then terminated by the addition of 15 μL of 50 mM EDTA. Detection reagent (15 μl) in buffer (100 mM HEPES pH 7.4, 150 mM NaCl and 0.1% w/v BSA) containing antiphosphoserine-licBa-32/36 monoclonal antibody 12C2 (Cell Signalling Technology, Beverly Mass., USA) labelled with W-1024 europium chelate (Wallac OY, Turku, Finland), and an APC-labelled anti-GST antibody (Prozyme, San Leandro, Calif., USA) was added and the reaction was further incubated for 60 minutes at room temperature. The degree of phosphorylation of GST-IκBα was measured using a Packard Discovery plate reader (Perkin-Elmer Life Sciences, Pangbourne, UK) as a ratio of specific 665 nm energy transfer signal to reference europium 620 nm signal.

As for `CCS(=O)(=O)N1CCC(c2c[nH]c3c(C(N)=O)cc(S(=O)(=O)c4ccc(C)cc4)cc23)CC1` [Example 48, 3-[1-(ethylsulfonyl)-4-piperidinyl]-5-[(4-methylphenyl)sulfonyl]-1H-indole-7-carboxamide], the IC50 is 25.1 µM.

The values are drawn from patent publication US20080269291A1, “Chemical Compounds” (priority 2005, published 2008).
